Measured values: PubChem BioAssay (NCI)
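Assay format: 96-well plates, 48-hour exposure. Definition used: TGI = concentration required for complete inhibition of growth.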

Key:
Assay in all cases: DTP human tumour cell line panel, 48 h
HOP-62 NSCLC = tested on: HOP-62 NSCLC
HOP-92 NSCLC = tested on: HOP-92 NSCLC
MDA-N = tested on: MDA-N
PC-3 prostate = tested on: PC-3 prostate
SK-MEL-2 melanoma = tested on: SK-MEL-2 melanoma
SN12C renal = tested on: SN12C renal
SW-620 colon = tested on: SW-620 colon
TK-10 renal = tested on: TK-10 renal
UACC-62 melanoma = tested on: UACC-62 melanoma
HL-60(TB) leukemia = tested on: HL-60(TB) leukemia

| Compound | TGI (HOP-62 NSCLC) [µM] | TGI (HOP-92 NSCLC) [µM] | TGI (MDA-N) [µM] | TGI (PC-3 prostate) [µM] | TGI (SK-MEL-2 melanoma) [µM] | TGI (SN12C renal) [µM] | TGI (SW-620 colon) [µM] | TGI (TK-10 renal) [µM] | TGI (UACC-62 melanoma) [µM] | TGI (HL-60(TB) leukemia) [µM] |
| --- | --- | --- | --- | --- | --- | --- | --- | --- | --- | --- |
| O=c1c2c3c(sc2nc2n1N=CN(c1ccc(Cl)cc1)C2)CCCC3 | > 100 | > 100 | > 100 | > 100 | > 100 | > 100 | > 100 | > 100 | > 100 | – |
| C/C(=N/NC(=S)N1CCCC1)c1cccc(/C(C)=N\NC(=S)N2CCCC2)n1 | 0.891 | – | 3.89 | 5.36 | 4.21 | 5.73 | 4.33 | 3.71 | 9.39 | 4.88 |
| CN1CCN(C(=S)N(C)C(=O)c2cccs2)CC1 | – | > 100 | > 100 | – | > 100 | > 100 | > 100 | > 100 | > 100 | – |
| C(/C=N/NC1=NCCCN1)=N\NC1=NCCCN1 | > 100 | > 100 | > 100 | > 100 | – | > 100 | > 100 | – | > 100 | – |
| CSC(=N)N1N=C2c3ccccc3CC[C@@H]2[C@@H]1c1ccccc1 | 32.8 | 20.4 | – | – | 29.2 | 31.2 | 29.9 | 33.5 | 41.7 | 34.6 |
| COC(=O)/C=C(\S/C(=C(/c1ccc(OC)cc1)n1cc(C(=O)OC)c(C(=O)OC)n1)c1ccc(OC)cc1)C(=O)OC | > 100 | – | > 100 | > 100 | > 100 | 51.4 | > 100 | 19 | > 100 | 7.64 |
| CC(C)N(c1cc2c(cc1F)c(=O)c(C(=O)O)cn2-c1ccc(N2CCN(C)CC2)cn1)C(C)C | > 100 | > 100 | > 100 | > 100 | – | > 100 | > 100 | > 100 | – | > 100 |
| O=C1c2ccccc2C(=O)c2c(O)c(O)cc(O)c21 | 69.9 | 76.2 | – | – | 69.1 | > 100 | > 100 | > 100 | 64.8 | 56.5 |
| CCO/C(O)=C(/C(=N)N1CCCC1)C(=O)Nc1ccc(Cl)cc1 | > 100 | – | > 100 | > 100 | > 100 | > 100 | > 100 | > 100 | > 100 | > 100 |
| COc1ccccc1N1C(=O)/C(=C\c2cc(OC)c(OC)c(OC)c2)S(=O)(=O)C1c1ccccc1 (centres undefined) | > 100 | > 100 | 48.3 | – | > 100 | > 100 | > 100 | > 100 | > 100 | – |
| O=c1[nH]c(=O)n(C2CC(O)C(CO)O2)c2nc3ccc4ccccc4c3nc12 (centres undefined) | 98.3 | > 100 | > 100 | > 100 | > 100 | > 100 | > 100 | > 100 | > 100 | – |
| O=C(/C=C\c1ccccc1-c1ccccc1)c1ccccc1 | > 100 | > 100 | > 100 | – | – | > 100 | > 100 | > 100 | > 100 | > 100 |
| COc1ccc(N2C(=O)/C(=C\c3cc(OC)c(OC)c(OC)c3)S(=O)(=O)C2c2ccccc2)cc1 (centres undefined) | > 100 | > 100 | 40.8 | – | 71.1 | > 100 | > 100 | > 100 | > 100 | – |
| CC(C)(C)C(=O)Nc1cccc(-c2ccc[nH]2)n1 | > 100 | > 100 | > 100 | > 100 | > 100 | > 100 | > 100 | > 100 | > 100 | – |
| COc1ccc(C(CC(=O)c2ccccc2)C(=O)c2ccc3c(c2)OCO3)cc1 (centres undefined) | > 100 | – | > 100 | > 100 | > 100 | > 100 | > 100 | > 100 | > 100 | > 100 |
| O=C(/C=C/c1cccs1)c1ccc(C(=O)/C=C/c2cccs2)cc1 | > 100 | > 100 | – | > 100 | – | > 100 | > 100 | > 100 | > 100 | – |
| Cc1cc2nc3c(C#N)c(-c4ccccc4)cc(Nc4ccc(F)cc4)n3c2cc1C | 36.6 | 36.5 | – | – | – | 53.7 | > 100 | 39.3 | – | – |
| Cc1ccnc2nc3[nH]c4ccccc4c3cc12 | > 100 | > 100 | > 100 | > 100 | > 100 | > 100 | > 100 | > 100 | > 100 | – |
| CN(C)CCN1C(=O)c2ccccc2C1(O)c1ccc(Cl)cc1 (centres undefined) | > 100 | – | > 100 | > 100 | – | > 100 | > 100 | > 100 | > 100 | > 100 |
